In series [1] the test system is papillary muscle of the guinea pig. As to the kind of experiment: Action potential duration on the papillary muscle of the guinea pig (relengthening of hypoxia-shortened APD90). The series is classed as cell-based. The note with it: concentration 2 μM, 60 min after addition, percentage in relation to the shortening caused by hypoxia. From the text: Action Potential Duration on the Papillary Muscle of the Guinea Pig
ATP deficiency states, observed during ischemia in the cardiac muscle cell, lead to a shortening of the action potential duration (ATP=adenosine triphosphate). They are regarded as one of the causes of so-called reentry arrhythmias, which can cause sudden cardiac death. The opening of ATP-sensitive potassium channels by the lowering of the ATP level is regarded as the cause of this. For the measurement of the action potential on the papillary muscle of the guinea pig a standard microelectrode technique was employed.
Guinea pigs of both sexes were killed by a blow to the head, the hearts were removed, and the papillary muscles were separated out and suspended in an organ bath. The organ bath was rinsed with Ringer's solution (136 mmol/l of NaCl, 3.3 mmol/l of KCl, 2.5 mmol/l of CaCl2, 1.2 mmol/l of KH2PO4, 1.1 mmol/l of MgSO4, 5.0 mmol/l of glucose, 10.0 mmol/l of 1-(2-hydroxyethyl)piperazine-4-(2-ethanesulfonic acid) (HEPES), pH adjusted to 7.4 with NaOH) and aerated with 100% oxygen at a temperature of 37° C. The muscle was stimulated with square-wave pulses of 1 V and 1 ms duration and a frequency of 1 Hz by means of an electrode. The action potential was derived and recorded by means of a glass microelectrode inserted intracellularly, which was filled with 3 mol/l of KCl solution. The compound to be tested was added to the Ringer's solution in a concentration of 2 μmol/l. The action potential was amplified using an amplifier from Hugo Sachs (March-Hugstetten, Germany) and stored and analyzed by means of a computer. The duration of the action potential was determined at a degree of repolarization of 90% (APD90). After an equilibration time of 30 min, the action potential shortening was produced by rinsing the papillary muscle with a hypoxic NaCl solution. The glucose was removed here, the HEPES buffer replaced by PIPES buffer (piperazine-1,4-bis(2-ethanesulfonic acid)), the pH was adjusted to 6.5, and the aeration was carried out using 100% nitrogen. After a time of 60 min, this led to a marked shortening of the APD90. After this time, the test compound was added and the relengthening of the action potential recorded after a further 60 min. The compound-caused relengthening of the APD90 was calculated as a percentage, in relation to the shortening caused by hypoxia. The test compounds were added to the bath solution as stock solution in propanediol.
The following relengthenings of the APD90 values were observed.

The test system of series [2] is chloroform-induced ventricular fibrillation in the mouse. Put plainly: Chloroform-induced ventricular fibrillation in the mouse (action in the case of vagal dysfunction). It counts as in vivo. The note with it: 3 mg/kg i.p., 30 min before chloroform anesthesia, percentage of mice with ventricular fibrillation, untreated control 100%. From the text: Chloroform-induced Ventricular Fibrillation in the Mouse (Action in the Case of Vagal Dysfunction)
Hypoactivity of the vagal nervous system leads to hyperactivity of the sympathetic nervous system. Damages to health that result from an inequilibrium of the autonomic nervous system when the dysfunction affects the heart include the weakening of the myocardial contractile force and fatal cardiac arrhythmias such as ventricular fibrillation. The action of the test compounds was investigated in the model of chloroform-induced ventricular fibrillation in the mouse (see J. W. Lawson, Antiarrhythmic activity of some isoquinoline derivatives determined by a rapid screening procedure in the mouse; J. Pharmacol. Exp. Ther. 160 (1968) 22).
The test compound was dissolved in a mixture of dimethyl sulfoxide (DMSO) and 10 percent sodium hydrogencarbonate solution and administered intraperitoneally (i.p.). The dose was 3 mg/kg. 30 min later, the mouse was anesthetized with chloroform in a beaker. As soon as respiratory arrest had occurred under deep anesthesia (toxic stage of anesthesia), the thorax of the animal was opened using a pair of scissors and the heartbeat was visually inspected. It can be determined here at a glance whether the heart is beating, fibrillating, or has stopped. The respiratory arrest induced by chloroform leads, via an absolute anoxia (oxygen deficiency) in combination with a direct stimulating action of chloroform on the sympathetic nervous system, to a strong stimulation of the sympathetic nervous system, which in turn, and in combination with the energy deficiency caused by oxygen deficiency, leads in the heart to the fatal arrhythmia, ventricular fibrillation. This toxic chloroform anesthesia led to ventricular fibrillation in 100% of the untreated mice (control). The percentage proportion of the mice with ventricular fibrillation in the individual test groups (consisting of n animals) is indicated as the fibrillation ratio.
The following fibrillation ratios were observed.

The target in series [3] is hSUR1/hKir6.2 (Homo sapiens, UniProt Q09428+Q14654). As to the kind of experiment: Action on hSUR1/hKir6.2-transfected CHO cells (hypoglycemic action), membrane potential by DIBAC4 fluorescence (FLIPR). The following applies: concentration 10 μM; CHO cells activated with diaxozide; mean of at least 4 experiments. The series is classed as cell-based. From the text: Action on hSUR1/hKir6.2-transfected CHO Cells (Hypoglycemic Action)
Chain of hSUR1/hKir6.2 (Q09428 whole entry): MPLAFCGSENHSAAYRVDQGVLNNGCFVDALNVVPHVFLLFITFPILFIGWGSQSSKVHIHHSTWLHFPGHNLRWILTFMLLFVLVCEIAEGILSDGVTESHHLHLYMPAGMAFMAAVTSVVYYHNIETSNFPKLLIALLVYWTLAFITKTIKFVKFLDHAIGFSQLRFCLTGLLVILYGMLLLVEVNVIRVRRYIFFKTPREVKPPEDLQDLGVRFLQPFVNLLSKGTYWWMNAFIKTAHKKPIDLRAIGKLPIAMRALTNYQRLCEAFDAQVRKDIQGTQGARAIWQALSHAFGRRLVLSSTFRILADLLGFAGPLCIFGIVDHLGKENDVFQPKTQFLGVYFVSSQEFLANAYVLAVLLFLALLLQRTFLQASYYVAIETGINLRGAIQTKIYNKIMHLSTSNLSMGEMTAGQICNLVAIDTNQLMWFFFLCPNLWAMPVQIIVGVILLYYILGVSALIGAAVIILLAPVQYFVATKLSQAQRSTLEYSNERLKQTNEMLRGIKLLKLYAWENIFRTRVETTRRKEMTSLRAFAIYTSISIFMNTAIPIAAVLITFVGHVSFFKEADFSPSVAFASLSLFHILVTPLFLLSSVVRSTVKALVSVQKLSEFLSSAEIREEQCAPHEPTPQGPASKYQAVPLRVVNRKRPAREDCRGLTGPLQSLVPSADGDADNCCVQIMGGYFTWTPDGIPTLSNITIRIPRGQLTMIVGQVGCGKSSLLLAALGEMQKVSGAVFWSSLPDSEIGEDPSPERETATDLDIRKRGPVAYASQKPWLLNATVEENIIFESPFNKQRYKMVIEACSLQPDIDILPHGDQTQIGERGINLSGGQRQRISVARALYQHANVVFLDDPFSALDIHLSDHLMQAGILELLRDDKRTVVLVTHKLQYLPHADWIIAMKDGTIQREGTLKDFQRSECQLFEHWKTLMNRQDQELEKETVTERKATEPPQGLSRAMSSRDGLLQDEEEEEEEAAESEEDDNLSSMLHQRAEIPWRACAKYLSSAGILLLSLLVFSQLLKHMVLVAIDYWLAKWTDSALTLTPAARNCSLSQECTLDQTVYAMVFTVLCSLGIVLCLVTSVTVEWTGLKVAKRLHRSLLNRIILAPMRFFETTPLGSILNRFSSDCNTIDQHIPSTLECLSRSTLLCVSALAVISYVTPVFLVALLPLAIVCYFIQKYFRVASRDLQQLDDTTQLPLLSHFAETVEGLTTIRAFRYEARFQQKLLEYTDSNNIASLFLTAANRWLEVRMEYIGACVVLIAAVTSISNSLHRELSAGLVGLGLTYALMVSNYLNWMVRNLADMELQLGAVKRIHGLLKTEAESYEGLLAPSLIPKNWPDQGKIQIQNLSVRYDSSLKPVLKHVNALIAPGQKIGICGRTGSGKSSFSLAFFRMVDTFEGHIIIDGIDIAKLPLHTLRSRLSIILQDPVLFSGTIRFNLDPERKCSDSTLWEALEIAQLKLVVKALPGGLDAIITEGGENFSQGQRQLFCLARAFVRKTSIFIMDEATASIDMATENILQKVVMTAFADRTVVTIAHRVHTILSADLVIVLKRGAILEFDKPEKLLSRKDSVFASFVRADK
Chain of hSUR1/hKir6.2 (Q14654 whole entry): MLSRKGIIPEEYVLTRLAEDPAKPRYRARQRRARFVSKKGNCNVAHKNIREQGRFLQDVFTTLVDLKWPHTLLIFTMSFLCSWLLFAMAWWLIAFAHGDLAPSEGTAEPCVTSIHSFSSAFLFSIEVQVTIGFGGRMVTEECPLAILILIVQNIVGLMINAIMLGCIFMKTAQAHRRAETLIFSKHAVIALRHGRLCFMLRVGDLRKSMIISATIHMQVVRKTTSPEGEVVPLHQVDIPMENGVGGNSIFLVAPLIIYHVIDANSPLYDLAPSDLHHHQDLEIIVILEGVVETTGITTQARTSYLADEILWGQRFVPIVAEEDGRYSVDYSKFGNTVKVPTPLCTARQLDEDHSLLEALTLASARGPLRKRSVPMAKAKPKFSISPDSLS
The target organ of these compounds is the β cell of the pancreas where they block ATP-sensitive potassium channels and produce a release of the hypoglycemic hormone insulin by influencing the electrical potential of the cell membrane.
The extent of this depolarization of the cell membrane, which is caused by the compounds according to the invention, was investigated on CHO cells that were transfected with the cloned components of human pancreatic ATP-sensitive potassium channels, hSUR1, and hKir6.2, and activated by pretreatment with diaxozide, an opener of ATP-sensitive potassium channels. The potency of a compound with respect to the membrane potential of these transfected and activated CHO cells is a measure of the hypoglycemic potential of this compound.
On the day of measurement, the microtiter plates were washed three times with PBS (physiological buffer solution). In the last washing step, 90 μl remained in each well. The cells were then loaded with the fluorescent dye DIBAC4 (Molecular Probes, Portland, Oreg., USA) by addition of 90 μl of a 10-micromolar solution of DIBAC4 in PBS and of 90 μl of a 400 micromolar solution of diaxozide in PBS to each well. After an incubation time of 30 min at 37° C., the microtiter plates were then transferred to a fluorescent microtiter plate reader (FLIPR; Molecular Devices, Sunnyvale, Calif., USA). The cells were stimulated by means of an argon laser (Innova 90; Coherent, Santa Clara, Calif., USA) at a wavelength of 488 nm and the fluorescence emission was measured by means of a CCD camera. The measurement of the membrane potential began after 4 min by addition of 20 μl of a solution of the test compound or of the control solution to each well, the resulting fluorescence emission being measured every 20 seconds for a period of 20 min. The data shown are mean values of at least 4 experiments.

As to `CCOCCOc1ccc(CCNC(=O)/C=C/c2cccs2)cc1S(=O)(=O)NC(=S)NC` [Example 10, 1-[5-(2-(trans-3-(2-Thienyl)acryloylamino)ethyl)-2-(2-ethoxyethoxy)phenylsulfonyl]-3-methyl-thiourea], the “Relengthening of the APD90 shortened by hypoxia” value (from here on “Relengthening”) in series [1] amounted to 50%.
What is called melting point is the temperature, or range, at which the solid turns liquid. For `COCCOc1ccc(CCNC(=O)/C=C/c2cccs2)cc1S(=O)(=O)NC(=S)NC(C)C` [Example 8, 1-[5-(2-(trans-3-(2-Thienyl)acryloylamino)ethyl)-2-(2-methoxyethoxy)phenylsulfonyl]-3-isopropyl-thiourea], the melting point is 101 °C.
For `COc1ccc(CCNC(=O)/C=C/c2cccs2)cc1S(=O)(=O)NC(=S)NC(C)C` [Example 5, 1-[5-(2-(trans-3-(2-Thienyl)acryloylamino)ethyl)-2-methoxyphenyisulfonyl]-3-isopropyl-thiourea], the melting point was determined as 96 °C.
Take `CNC(=S)NS(=O)(=O)c1cc(CCNC(=O)/C=C/c2cccs2)ccc1OCC1CCCCO1` (stereo not drawn) [Example 15, 1-[5-(2-(trans-3-(2-Thienyl)acryloylamino)ethyl)-2-(tetrahydropyran-2-ylmethoxy)phenylsulfonyl]-3-methyl-thiourea]: the melting point amounted to 80 °C.
Turning to `CNC(=O)NS(=O)(=O)c1cc(CCNC(=O)/C=C/c2cccs2)ccc1OCCOC` [Example 7, 1-[5-(2-(trans-3-(2-Thienyl)acryloylamino)ethyl)-2-(2-methoxyethoxy)phenylsulfonyl]-3-methyl-urea], the “Fibrillation ratio (in %)” value in series [2] is reported as 80%. Besides, in series [3], the “Blockade hSUR1/hKiR6.2” value worked out at 8.1%. Moreover, the “Relengthening” value in series [1] amounted to 39%.
In turn, `CNC(=S)NS(=O)(=O)c1cc(CCNC(=O)/C=C/c2ccccn2)ccc1OC` [Example 18, 1-[5-(2-(trans-3-(2-Pyridyl)acryloylamino)ethyl)-2-methoxyphenylsulfonyl]-3-methyl-thiourea] gave a melting point of 188 °C.
On the same count and under the same terms, for `CNC(=S)NS(=O)(=O)c1cc(CCNC(=O)/C=C/c2cccs2)ccc1OCC1CCCO1` (stereo not drawn) [Example 14, 1-[5-(2-(trans-3-(2-Thienyl)acryloylamino)ethyl)-2-(tetrahydrofuran-2-ylmethoxy)phenylsulfonyl]-3-methyl-thiourea] the value was 78 °C; for `CNC(=S)NS(=O)(=O)c1cc(CCNC(=O)/C=C/c2cccs2)ccc1OCCOC` [Example 6, 1-[5-(2-(trans-3-(2-Thienyl)acryloylamino)ethyl)-2-(2-methoxyethoxy)phenylsulfonyl]-3-methyl-thiourea], 152 °C.
With `COCCOc1ccc(CCNC(=O)/C=C/c2ccccn2)cc1S(=O)(=O)NC(=S)NC(C)C` [Example 20, 1-[5-(2-(trans-3-(2-Pyridyl)acryloylamino)ethyl)-2-(2-methoxyethoxy)phenylsulfonyl]-3-isopropyl-thiourea], the “Fibrillation ratio (in %)” value in series [2] worked out at 80%. For the same compound, the “Blockade hSUR1/hKiR6.2” value in series [3] came out at 5.9%. Further, the “Relengthening” value in series [1] is 26%.
The compound `CNC(=S)NS(=O)(=O)c1cc(CCNC(=O)/C=C/c2cccs2)ccc1OCCOC(F)(F)F` [Example 16, 1-[5-(2-(trans-3-(2-Thienyl)acryloylamino)ethyl)-2-(2-(trifluoromethoxy)ethoxy)phenylsulfonyl]-3-methyl-thiourea] came in with a melting point of 161 to 163 °C.
In the case of `CNC(=S)NS(=O)(=O)c1cc(CCNC(=O)/C=C/c2cccs2)ccc1-c1ccco1` [Example 17, 1-[5-(2-(trans-3-(2-Thienyl)acryloylamino)ethyl)-2-(2-furyl)phenylsulfonyl]-3-methyl-thiourea], the melting point fell in the range of 175 to 176 °C.
Turning to `CCOc1ccc(CCNC(=O)/C=C/c2cccs2)cc1S(=O)(=O)NC(=S)NC` [Example 9, 1-[5-(2-(trans-3-(2-Thienyl)acryloylamino)ethyl)-2-ethoxyphenylsulfonyl]-3-methyl-thiourea], the melting point was found to be 74 °C.
`CCOCCOc1ccc(CCNC(=O)/C=C/c2cccs2)cc1S(=O)(=O)NC(=O)NC` [Example 11, 1-[5-(2-(trans-3-(2-Thienyl)acryloylamino)ethyl)-2-(2-ethoxyethoxy)phenylsulfonyl]-3-methyl-urea] yielded a melting point of 65 °C.
For the compound `CNC(=S)NS(=O)(=O)c1cc(CCNC(=O)/C=C/c2cccs2)ccc1OC` [Example 1, 1-[5-(2-(trans-3-(2-Thienyl)acryloylamino)ethyl)-2-methoxyphenylsulfonyl]-3-methyl-thiourea], the “Blockade hSUR1/hKiR6.2” value in series [3] turned out to be 30.7%. Moreover, the “Relengthening” value in series [1] turned out to be 33%.
Regarding `CNC(=O)NS(=O)(=O)c1cc(CCNC(=O)/C=C/c2cccs2)ccc1OC` [Example 3, 1-[5-(2-(trans-3-(2-Thienyl)acryloylamino)ethyl)-2-methoxyphenylsulfonyl]-3-methyl-urea], the “Fibrillation ratio (in %)” value in series [2] was 65%. For the same compound, the “Blockade hSUR1/hKiR6.2” value in series [3] was found to be 1.7%.

For the origin of these results see patent US6472413B2, “Heteroarylacryloylaminoalkyl-substituted benzenesulfonamide derivatives, their preparation, their use and pharmaceutical preparations comprising them” (Adventis Pharma Deutschland GmbH, priority 2000, dated 2002).
